Tests used:
[1] = system: LNCaP cells; test: Western blot of endogenous KChAP (899 antibody) after apoptotic stimulus; type: cell-based, human
Text: (§1) Antibodies and Western Blotting Two antibodies were used to monitor intracellular levels of KChAP protein in control and Ad/KChAP infected cells. Antibody 899 was raised against a bacterial fusion protein which consisted of the C-terminal 169 amino acids of KChAP (Wible et al, 1998; Kuryshecv et al 2000). It recognizes both endogenous and overexpressed KChAP. Antibody 088 was raised against a peptide in the N-terminus of KChAP which is not present in PIAS3 (SPSPLASIPPTLLTPGTLL-GPKREVDMH, SEQ ID NO. 3). Antibody 088 recognizes only overexpressed, not endogenous, KChAP. Affinity purified antibodies were used in Western blotting. Other antibodies used for Western blotting to detect the following proteins were obtained from commercial sources: p53 (DO-1; Santa Cruz Biotech.), STAT1, STAT3, and cyclins A, B, and D3 (Transduction Labs), actin (clone AC-40, Sigma), phospho-p53 (ser 15) (Cell Signaling Tech. Inc.), PARP (we used two antibodies interchangeably which recognize both intact and cleaved PARP; one from Cell Signaling Inc., and one from Pharmingen), monoclonal Rb (Pharmingen), and p21 (WAF1 Ab1; Oncogene Res. Pdts).
(§2) Cells were lysed in a buffer consisting of 1% Triton-X 100, 150 mM NaCl, 50 mM Tris, 1 mM EDTA, pH 7.5 containing freshly added protease inhibitors (Complete, Roche Mol. Biol.) and the phosphatase inhibitors sodium fluoride (50 mM) and sodium orthovanadate (1 mM) for 30 minutes on ice. Insoluble debris was pelleted at 20,800×g for 10 minutes at 4° C. Lysate protein concentrations were determined by the BCA method (Pierce), and aliquots were boiled in a reducing SDS sample buffer to denature protein. SDS PAGE gels were blotted to PVDF membranes using a semi-dry blotting apparatus. Blots were blocked overnight in 5% milk (Bio-Rad) in PBS-T (PBS plus 0.1% Tween-20) at 4° C. Primary antibodies diluted in blocking buffer were incubated with the blots for one hour at room temperature (RT). Blots were washed with PBS-T and incubated with HRP (horseradish peroxidase)-conjugated secondary antibodies (Amersham Pharmacia) in blocking buffer for 1 hour at RT. Blots were developed with the ECL-Plus kit (Amersham Pharmacia).
(§3) We observed an increase in the amount of endogenous KChAP detected in cells exposed to STS. […] Multiple bands are detected in both cell lysates with the 899 antibody; a 68 kD doublet which is close to the predicted molecular weight of KChAP and PIAS3 and an upper band of about 85 kD. […] The signal then drops to control levels or lower after about 6 hours in LNCaP cells and around 4 to 6 hours in Jurkat cells. This peak in immunoreactivity largely precedes detection of PARP cleavage, a marker for apoptosis. […] There was no change in the 85 kD band. […]

[2] = system: Jurkat cells; test: as above; type: cell-based; conditions: for signal of the 68 kD KChAP doublet (899 antibody): STS 1 μM
Text: as §1, §2, §3

[3] = system: prostate cancer cells and breast cancer cells versus cardiomyocytes; test: Sensitivity of cancer versus non-cancerous cells to KChAP overexpression; type: cell-based

CC[C@@]1(O)C(=O)OCc2c1cc1n(c2=O)Cc2cc3ccccc3nc2-1 [camptothecin] was tested, and the “pattern of KChAP immunoreactivity after apoptotic inducing drug” value ([1]; cell line not specified, data not shown) was “the same pattern was also obtained”.

With CN[C@@H]1C[C@H]2O[C@@](C)([C@@H]1OC)n1c3ccccc3c3c4c(c5c6ccccc6n2c5c31)C(=O)NC4 [staurosporine] the “signal of the 68 kD KChAP doublet (899 antibody)” value (shortened to “signal of the 68 kD KChAP doublet”) ([1]; LNCaP, STS 1 μM) was “immunoreactivity increases”, the “time after which KChAP signal drops to control levels or lower” value ([1]; LNCaP, STS 1 μM) was “about 6 hours” and the “signal of the 68 kD KChAP doublet” value ([1]; LNCaP, STS 1 μM, listed as STS) was “increased as early as one hour after the addition of STS”. For the same molecule, the “KChAP content of Jurkat cells” value [2] was “greatly increases their KChAP content”, the “apoptosis in Jurkat cells” value [2] was “causes apoptosis” and the “signal of the 68 kD KChAP doublet” value [2] was “immunoreactivity increases”. The “signal of the 68 kD KChAP doublet” value ([2]; listed as STS) was “increased as early as one hour after the addition of STS”.

B1: KChAP: potassium channel modulatory protein, human sequence SEQ ID NO:2, overexpressed in cells (protein, listed as Homo sapiens)
chain: MKIKELYRRRFPRKTLGPSDLSLLSLPPGTSPVGSPGPLAPIPPTLLAPGTLLGPKREVDMHPPLPQPVHPDVTMKPLPFYEVYGELIRPTTLASTSSQRFEEAHFTFALTPQQVQQILTSREVLPGAKCDYTIQVQLRFCLCETSCPQEDYFPPNLFVKVNGKLCPLPGYLPPTKNGAEPKRPSRPINITPLARLSATVPNTIVVNWSSEFGRNYSLSVYLVRQLTAGTLLQKLRAKGIRNPDHSRALIKEKLTADPDSEVATTSLRVSLMCPLGKMRLTVPCRALTCAHLQSFDAALYLQMNEKKPTWTCPVCDKKAPYESLIIDGLFMEILSSCSDCDEIQFMEDGSWCPMKPKKEASEVCPPPGYGLDGLQYSPVQGGDPSENKKKVEVIDLTIESSSDEEDLPPTKKHCSVTSAAIPALPGSKGVLTSGHQPSSVLRSPAMGTLGGDFLSSLPLHEYPPAFPLGADIQGLDLFSFLQTESQHYGPSVITSLDEQDALGHFFQYRGTPSHFLGPLAPTLGSSHCSATPAPPPGRVSSIVAPGGALREGHGGPLPSGPSLTGCRSDIISLD
B1 was tested, and the “sensitivity of cancer cells relative to non-cancerous cells such as cardiomyocytes” value [3] was “about ten times more sensitive”.
